# Results: patent US6245758A, “Methods of use for peroxynitrite decomposition catalysts, pharmaceutical compositions therefor” (priority 1996, dated 2001)
# System: human aortic endothelial cells
# Experiment: Endothelial cell injury assay (51Cr release), neutrophil-mediated
# Format: cell-based
# Details: 2 h; TNF/C5a-activated neutrophils; FIG. 7
# Protocol: Peroxynitrite catalyst, Fe(TMPyP), was added to neutrophils in the cell injury assay immediately before activation by TNF/C5a. After 2 h, the amount of specific cell injury was assessed by the amount of radiolabel released into the medium. Values represent the average of three replicas +/-SEM. *p<0.01 vs. 0 uM control by Dunnett's t Test.
# […]: Human recombinant tumor necrosis factor-alpha (TNF-a) was obtained from Genzyme Corporation, Cambridge, MA. Human recombinant complement C5a and L-arginine (L-arg) was purchased from Sigma Chemical Company, St. Louis, Mo. Authentic peroxynitrite in 50 mM NaOH was prepared as described above.
# Preparation of Neutrophils: Human neutrophils were isolated from peripheral blood of healthy donors (Look, D. C., Rapp, S. R., Keller, B. T., and Holtzman, M. J. Am. J. Physiol., 263, L79-L87 [1992]). […]
# Endothelial Cell Injury Assays: The cytotoxic effects of stimulated neutrophils or peroxynitrite on endothelial cells was determined using a ^51 Cr-release assay as described by Moldow (Moldow et. al. Methods Enzymol., 105, 378-385, [1984]). […]
# ^51 Cr release was determined by aspiration of the supernatant from each well (soluble fraction). […] Both fractions were analyzed by gamma scintillation spectrometry. Results were expressed as percent ^51 Cr release as follows: % release=cpm (soluble+nonadherent/total cpm per well)×100. […]
smiles,measurement,value
"CC(=O)[O-].C[n+]1ccc(-c2c3nc(c(-c4cc[n+](C)cc4)c4ccc([n-]4)c(-c4cc[n+](C)cc4)c4nc(c(-c5cc[n+](C)cc5)c5ccc2[n-]5)C=C4)C=C3)cc1.Cc1ccc(S(=O)(=O)[O-])cc1.Cc1ccc(S(=O)(=O)[O-])cc1.Cc1ccc(S(=O)(=O)[O-])cc1.Cc1ccc(S(=O)(=O)[O-])cc1.[Fe+3] [Fe(III)TMPyP, Acetato (5,10,15,20-tetrakis(N-methyl-4-pyridyl)porphinato) iron (III) tetra-tosylate]",inhibition of neutrophil-mediated injury to endothelial cells,Inhibition of neutrophil-mediated injury to human aortic endothelial cells
